Measurements: ChEMBL document CHEMBL4480440, “Synthesis and radical-scavenging activity of C-methylated fisetin analogues” (Bioorg Med Chem, 2019)

Experiments:
[1] = Antioxidant activity assessed as galvinoxyl radical scavenging activity by measuring second order rate constant by UV-vis spectrometric analysis; format: functional
[2] = Antioxidant activity assessed as galvinoxyl radical scavenging activity by measuring increase in pseudo first-order rate constant UV-vis spectrometric analysis; format: functional

SMILES	K [1]	Activity [2]
Cc1cc(-c2oc3cc(O)ccc3c(=O)c2O)c(C)c(O)c1O	1.58 ×10³ /M/s	Dose-dependent effect
O=c1c(O)c(-c2ccc(O)c(O)c2)oc2cc(O)ccc12	7.58 ×10¹ /M/s	
Cc1cc(-c2oc3cc(O)ccc3c(=O)c2O)cc(O)c1O	1.66 ×10⁵ /M/s	
Cc1c(-c2oc3cc(O)ccc3c(=O)c2O)ccc(O)c1O	1.55 ×10² /M/s	
